Laboratory results: patent US20240254533A1, “METHODS FOR PRODUCING TRYPTAMINE DERIVATIVES” (OCTARINE BIO APS, priority 2021, published 2024)

Assay: Chemical stability of substituted tryptamine derivatives under alkaline, acidic, oxidative and heat stress
Assay type: physicochemical
Conditions: for Degradation after 24 h exposure (in words): all conditions tested
Method: Chemical stability of substituted tryptamine derivatives was determined under alkaline, acidic, oxidative and heat stress as follows. 25 mM stock solutions of the target tryptamine molecules were prepared in 100% methanol. 15 μL is mixed with 5 μL of 400 mM HCl solution (final pH=1.1), 400 mM NaOH solution (Final pH=12.5), 12% H2O2 solution (final concentration 3%), or H2O pH 7.0. Acidic, alkaline and oxidative samples were incubated at 30° C. for 24 h while samples in water were incubated at 80° C. for 24 h. A control under ambient conditions was also prepared where 15 μL of the molecule was added to 5 μL H2O pH 7.0 and incubated at 30° C. After 24 h samples were placed on ice and 60 μL of ice-cold 100% methanol is added to each sample. Samples were centrifuged and transferred to HPLC vials for analysis. The remaining concentration was quantified by comparing to authentic analytical standards. Determining the presence of degradation products were determined by comparing with authentic analytical standards.
While the added phosphate group of psilocybin helps protect the molecule from degradation, psilocybin is also relatively unstable, prone to dephosphorylation to psilocin and subsequent degradation. The instability of these molecules hinders formulation and delivery of the compound for therapeutic use. To improve the chemical stability of the active compound psilocin, glycosylation can be used as an effective strategy. […] Degradation of each compound was assessed by measuring the amount of compound remaining after 24 h exposure to each condition.

[1] = pH = 1.1 (HCl), 24 h incubation
[2] = pH = 12.5 (NaOH), 24 h incubation

SMILES	% left after 24 h (3% H2O2, 24 h incubation) [%]	% left after 24 h (4° C., 24 h incubation) [%]	% left after 24 h (30° C., 24 h incubation) [%]	% left after 24 h (80° C., 24 h incubation) [%]	% left after 24 h (Control) [%]	Degradation after 24 h exposure (in words)	% left after 24 h [1] [%]	% left after 24 h [2] [%]
CN(C)CCc1c[nH]c2cccc(O[C@@H]3O[C@H](CO)[C@@H](O)[C@H](O)[C@H]3O)c12 [Psilocin glucoside, psilocin-O-β-D-glucoside]	100.0	100.0	100.0	100.0	100.0	practically no signs of degradation	100.0	100.0
CN(C)CCc1c[nH]c2cccc(O)c12 [Psilocin]	0.0	0.0	0.0	0.0	100.0	complete degradation	0.0	0.0
CN(C)CCc1c[nH]c2cccc(OP(=O)(O)O)c12 [Psilocybin]	–	–	–	–	–	much less degradation compared to psilocin	–	–
